Source: patent publication US20170246267A1, “CHOLINERGIC ANTAGONISM AS AN ADJUNCT TO CANCER THERAPY” (The Trustees of Columbia University in the City of New York, priority 2014, published 2017)
Entries after “also recorded” stand apart in the source; their conditions may differ. Starred links: 1 amine or outer side, 2 acyl side, 3 side chain; linkers in the order of their positions; H or OH if unused. Positions of bridges follow the written chain, without caps; N, C: chain ends. Non-standard residues stand in square brackets, D forms with d. Residues, ends and D or L forms follow the SMILES beside them. X1 = CC(=O)NC(C(=O)OC(C(C)C)C(N[*:1])C(=O)[*:2])C(O)C(C)C; PhLac = O=C(O)[CH](O)Cc1ccccc1; NMeT = CN[CH](C(=O)O)[CH](C)O; NMeA = CN[CH](C)C(=O)O; NMeDha = C=C(NC)C(=O)O

Experiments:
INS-GAS mice [1] = conditions: mouse, in vivo
[2] = system: TMK1 gastric cancer cell line; assay: YAP immunoblotting in TMK1 gastric cancer cell line; format: cell-based, human; parameters: changes of YAP phosphorylation after carbachol stimulation: dose or concentration left out as unconfirmed
Method: (§1) Similarly, carbachol treatment in Apc-deleted gastric organoids reduced the level of phosphorylated YAP (FIG. 51G). […] Next a human M3R gene-expressing construct was transfected into the M3R-negative AGS cell line. Overexpression of M3R decreased the level of phosphorylated YAP in a Gq-dependent manner, and activated the transcriptional activity of YAP in a luciferase assay (Dupont et al., 2011) (FIGS. 45B, 45C, and 52A).
(§2) Protein lysates were prepared from cells, separated by sodium dodecyl sulfate-polyacrylamide gel electrophoresis (SDS-PAGE), transferred to polyvinylidene difluoride membranes (Millipore). The membrane was probed with primary antibodies (phospho-YAP (Cell Signaling, 1:1000), YAP (Cell Signaling, 1:1000, and β-actin (Sigma, 1:5000) antibodies), and then incubated with the secondary antibody. Immunocomplexes were detected using the enhanced chemiluminescence system (Amersham Biosciences).
(§3) The human cancer cell lines were cultured in RPMI, DMEM, or Ham's F-12 medium supplemented with 10% fetal bovine serum, as described previously (Hayakawa et al., 2011).

[3] = Bethanechol and response to 15 Gy abdominal irradiation (AIR); format: in vivo, mouse
DSS-colitis = assay: Bethanechol in drinking water in DSS-colitis; format: in vivo, mouse
[4] = system: Dclk1-CreERT; R26-DTA mice; conditions: mouse, in vivo
[5] = system: Apc-deleted gastric organoids; assay: YAP immunoblotting in Apc-deleted gastric organoids treated with carbachol; format: cell-based, mouse; conditions: 1 mM carbachol for 7 days
Text: as §1
(§4) The harvested mouse stomachs were opened longitudinally and washed with cold PBS. The tissue was chopped into approximately 5 mm pieces, washed with cold PBS, and incubated in 8 mM EDTA in PBS for 60 minutes on ice. The tissue fragments were suspended vigorously in cold 10% FBS using a 10-mL pipette, yielding supernatants enriched in crypts. […]
as §2

human cancer cells = assay: NGF expression in human cancer cells treated with carbachol; format: cell-based; conditions: TMK-1 cells, 10 mM carbachol for 24 hours
Text: as §1
(§5) Total RNA was extracted from whole stomach samples from each animal using TRIzol reagent (Invitrogen) or the RNAqueous-micro kit (Ambion) and subjected to first-strand complementary DNA synthesis using the Superscript III cDNA Amplification System (Invitrogen) following the manufacturer's instructions. qRT-PCR was performed using a three-step method, an ABI 7300 system and SYBR green (Roche). The qRT-PCR primer sequences are available upon request. The results were expressed as the copy number of each gene relative to that of Gapdh or GAPDH.
as §3

gastric organoids [6] = assay: Ngf expression in cultured gastric organoids treated with carbachol; format: cell-based, mouse
Text: In mouse gastric tumors, there was also a specific upregulation of Ngf (almost 20 times higher expression than the normal stomach), and such upregulation was not observed in any other neurotrophins (FIG. 40B). Similar upregulation of Ngf was found in mouse colorectal tumors induced by azoxymethane (AOM) and dextran sodium sulfate (DSS) (FIG. 47B). […] Immunostaining and in situ hybridization confirmed that NGF was expressed within the neoplastic epithelium rather than the stromal compartment (FIGS. 40D and 47C), a finding confirmed by cell sorting and subsequent qPCR (FIGS. 40E and 40F). MNU tumor-derived organoids that are cultured in isolation, separated from their native microenvironment, lost Ngf expression within 7 days. […] Therefore, ACh production, possibly from tuft cells initially but later from innervated nerves with axonogenesis, is at least partly responsible for the neoplastic upregulation of NGF.
as §4, with “crypts. Gland fractions were centrifuged at 900 rpm for 6 minutes at 4° C. and diluted with advanced DMEM/F12 (Invitrogen) containing B27, N2, 1 μM n-Acetylcysteine, 10 mM HEPES, penicillin/streptomycin, and Glutamax (all from Invitrogen).” for “crypts.”
as §5, with “The qRT-PCR primer sequences are available upon request.” left out

[7] = system: small cell lung cancer xenografts; conditions: reference 50; cited from earlier work
INS-GAS mice [8] = conditions: mouse, in vivo; remark: listed apart in the source
gastric organoids [9] = assay: In vitro gastric organoid culture with or without neuron co-culture: organoid growth; format: cell-based, mouse
gastric organoids [10] = assay: Stem cell marker / Wnt target gene expression in gastric organoids (qRT-PCR); format: cell-based, mouse
[11] = after knockout of tuft cells, bethanechol in the drinking water

## O=c1[nH]cc(F)c(=O)[nH]1 [5-FU, 5-Fluorouracil]
INS-GAS mice [1]
  tumor size: no effect

## C=C1C(=O)NC(C)C(=O)N(C)C(C)C(=O)NC(C(OC(=O)C(NC(C)=O)C(O)C(C)C)C(C)C)C(=O)N(C)C(C(C)OC)C(=O)OC(C)C(NC(C)=O)C(=O)OC(Cc2ccccc2)C(=O)N1C (centres unmarked) [YM254890] (Ac-T[PhLac][NMeDha]A[NMeA][X1][NMeT](Me); ester 1-C; configuration not given here)
[2]; pretreated with YM254890
  changes of YAP phosphorylation after carbachol stimulation: blocked

## CC(C[N+](C)(C)C)OC(N)=O (centres unmarked) [bethanechol]
[3]; 15 Gy abdominal irradiation, bethanechol as a single agent immediately before or after the radiation
  survival: no significant overall impact
[3]; both pre- and post-radiation treated mice
  appearance of the colon after radiation: almost normal appearing
[3]; day +4 after radiation, both pre- and post-radiation treated mice
  improvement of histopathologic score for the colon compared to the controls: > 65%
DSS-colitis; after ablation of Dclk1+ (tuft) cells, bethanechol in the drinking water
  mucosal / intestinal regeneration: restored; also recorded: improve
DSS-colitis; [11]
  proliferation: improved
  ulcer length: reduction
DSS-colitis; bethanechol-treated
  DSS colitis: Significant improvement
DSS-colitis; mouse, in vivo
  proliferation (Ki67): increased
[4]
  loss of proliferation in the stomach by Dclk1+ cell ablation: rescue this effect at least in part; also recorded: significantly rescued

## C[N+](C)(C)CCOC(N)=O [carbachol]
[5]
  level of phosphorylated YAP: reduced
Human cancer cells
  NGF expression: significantly upregulated
Gastric organoids [6]; MNU tumor-derived organoids cultured in isolation, day 7
  Ngf expression: upregulated; also recorded: partly reestablished
Gastric organoids [6]; gastric organoids from WT mice, carbachol for 7 days
  Ngf expression: upregulated
Gastric organoids [6]; organoids from M3 Receptor Knockout (M3RKO) mice
  NGF expression: no change
[2]; 1 mM carbachol
  level of phosphorylated YAP: reduced
  levels of total YAP: no significant changes

## NC(=O)C(c1ccccc1)(c1ccccc1)[C@@H]1CCN(CCc2ccc3c(c2)CCO3)C1 [darifenacin]
[7]
  growth of small cell lung cancer xenografts: inhibit
INS-GAS mice [8]
  cellular proliferation of the tumors: reduced

## O=C1[O][Pt]2([NH][C@@H]3CCCC[C@H]3[NH]2)[O]C1=O [oxaliplatin]
INS-GAS mice [1]
  tumor size: no effect

## CC[C@@H]1C(=O)OC[C@@H]1Cc1cncn1C [pilocarpine]
Gastric organoids [9]; relative number of organoids at day 10, 100 μM pilocarpine
  organoid growth: stimulated
Gastric organoids [10]; gastric organoids of M3KO mice
  expression of Lgr5, Cd44, and Sox9: no effects
Gastric organoids [10]; organoids from WT mice, 10 or 100 μM, day 7, dose-dependent
  expression of gastric stem cell markers and Wnt target genes Lgr5, Cd44, and Sox9: up-regulation

## CN1[C@@H]2C[C@@H](OC(=O)[C@H](CO)c3ccccc3)C[C@H]1[C@@H]1O[C@@H]12 [scopolamine]
Gastric organoids [9]
  stimulatory effect of neuron co-culture on gastric organoid growth: inhibited

## NGF: nerve growth factor, used to treat TMK-1 cells
[2]; TMK-1 cells treated with NGF
  YAP activation: did not cause
